Consider 1 compound from ChEMBL document CHEMBL4368883, “Identification of the first enantiopure Rac1-Tiam1 protein-protein interaction inhibitor and its optimized synthesis via phosphine free remote group directed hydroarylation” (Medchemcomm, 2019).

The target of assay [1] is T1, Ras-related C3 botulinum toxin substrate 1/T-lymphoma invasion and metastasis-inducing protein 1 (Homo sapiens) (UniProt P63000+Q13009). Kind of assay: Inhibition of Rac1-Tiam1 protein-protein interaction in human A617 cells assessed as reduction in intracellular Rac1-GTP levels at 10 uM after 4 hrs by G-LISA assay relative to control. It counts as cell-based.
The target of assay [2] is T1, Ras-related C3 botulinum toxin substrate 1/T-lymphoma invasion and metastasis-inducing protein 1 (Homo sapiens). Kind of assay: Inhibition of Rac1-Tiam1 protein-protein interaction in human A617 cells assessed as reduction in intracellular Rac1-GTP levels at 1 to 10 uM after 4 hrs by G-LISA assay. It counts as cell-based.

Active and inactive are the calls of the source. No cut-off for these calls is given here.

By inhibition is commonly meant the percentage by which the read-out fell short of the control. For the compound `CCOC(=O)C1(N)C2CC(CC2c2cccc(Nc3ccc(N)cc3)c2)C1Sc1ccccc1` (racemic), in assay [1], the inhibition was 17.2%. Also, the inhibition entry in assay [2] was “inactive”.
